From article PMC12040169 (PLOS Biology, 2025)

Experiment: in vitro
Details: human, hela cells, % viability

Structure (SMILES) | viability at 28.5 h, 10 µM [%]
CC(=O)Nc1ccc(CNc2ncccc2OC(F)F)cc1 [CBK306016] | 95
CN(C(=O)C1(NC(N)=O)CC1)c1nc2c(s1)CC(c1ccccc1)CC2 (centres unmarked) [CBK306022] | 93
CCc1nc(C(C)NC(=O)COc2nn(C)c3nc(C)cc(C)c23)cs1 (centres unmarked) [CBK306024] | 93.3
O=C(CCNS(=O)(=O)c1ccccc1Cl)N1CCN(C(=O)C2CC2)CC1 [CBK306025] | 113
COc1ccccc1CN(C)C(=O)Nc1ccc(S(N)(=O)=O)cc1 [CBK306026] | 90.4
CCOCCn1c(CN2CCCCC2)nc2c1c(=O)n(C)c(=O)n2C [CBK306028] | 85.8
CCn1c(CN2CC(C)CC(C)C2)nc2c1c(=O)n(C)c(=O)n2C (centres unmarked) [CBK306030] | 84.4
CCCSc1nc2cc(C(=O)OC)ccc2c(=O)n1CC1CCCO1 (centres unmarked) [CBK306031] | 91
COC(=O)CCn1c(=O)c2c(nc3oc(C(C)(C)C)cn32)n(C)c1=O [CBK306034] | 87.7
CCn1c(C)cc(C(=O)CSc2nnc(N3CCCC3)n2C2CC2)c1C [CBK306035] | 85.5
CC(C)NC(=O)CN(C)Cc1nc(-c2cccc(C(F)(F)F)c2)no1 [CBK306036] | 72.2
CCN(CC(=O)NC(C)C)Cc1nc(-c2cccc(C(F)(F)F)c2)no1 [CBK306039] | 88.6
Cc1oc(NC(=O)CN2CCN(c3ccccc3)CC2)c(C#N)c1C [CBK306044] | 81.7
CC(Sc1nc2ccccc2c(=O)n1C1CC1)C(=O)N1CCOCC1 (centres unmarked) [CBK306045] | 79.5
CC1CCCCC1NC(=O)NC(=O)Cn1nnc2ccccc2c1=O (centres unmarked) [CBK306046] | 90.2
CCCn1c(C)c(C)n2c3c(=O)n(CCC(=O)OC)c(=O)n(C)c3nc12 [CBK306048] | 98.4
COc1ccc(CC(=O)NC(CCSC)c2nc3ccccc3[nH]2)cc1 (centres unmarked) [CBK306050] | 82.6
CC(c1nc(N)nc(N(C)C)n1)N(C)CCOc1ccccc1F (centres unmarked) [CBK306053] | 88.2

Structure (SMILES) | viability at 28.5 h, 10 µM [%]
Cc1cccc(N2CCN(CC(=O)Nc3cc(Cl)ccc3C#N)CC2)c1 [CBK306055] | 109
Cc1sc2ncn(CC(=O)Nc3cccnc3)c(=O)c2c1C [CBK306057] | 92.5
Cc1nc(C)c(CCC(=O)Nc2ccc(N3CCOCC3)cc2)c(=O)[nH]1 [CBK306059] | 88.4
N#CCC(=O)Nc1ccc(C(=O)N2CCN(c3ccccc3)CC2)cc1 [CBK306060] | 91.9
CCOCCn1c(CN2CCOCC2)nc2c1c(=O)n(C)c(=O)n2C [CBK306062] | 105
CC1CCCN(Cc2nc3c(c(=O)n(C)c(=O)n3C)n2CC(N)=O)C1 (centres unmarked) [CBK306064] | 82.3
Cc1nn(C)c(C)c1CC(=O)N1CCc2c(sc3ncnc(N)c23)C1 [CBK306065] | 86.9
Cc1sc2nc(C(C)N3CCN(Cc4ccco4)CC3)[nH]c(=O)c2c1C (centres unmarked) [CBK306066] | 93.7
CCCn1ccnc1SCC(=O)Nc1ccc(CN2CCOCC2)cc1 [CBK306068] | 87.8
CCOC(=O)C1CCN(C(=O)Cn2cnc3ccc(Br)cc3c2=O)CC1 [CBK306070] | 106
O=C(CSc1nccn1C1CC1)Nc1ccc(CN2CCOCC2)cc1 [CBK306071] | 98.9
O=C(CSc1ccccn1)Nc1ccc(CN2CCOCC2)cc1 [CBK306072] | 91
CC1CCCN(C(=O)CCc2nc3sc4c(c3c(=O)[nH]2)CCCC4)C1 (centres unmarked) [CBK306073] | 87.5
O=C(c1cc(S(=O)(=O)NCc2ccco2)c(Cl)cc1Cl)N1CCCC1 [CBK306076] | 87.8
CCOC(=O)c1sc2nc(C(C)N3CCCCC3)[nH]c(=O)c2c1C (centres unmarked) [CBK306078] | 111
Cn1c(=O)n(CC(N)=O)c(=O)c2c1nc1oc(C(C)(C)C)cn12 [CBK306081] | 96.5
Cc1ccc(CN(C)CC(=O)Nc2cc(C(F)(F)F)ccc2Cl)o1 [CBK306085] | 90.4
